Read-outs that look alike come from different tables or passages of the source.
Columns and labels:
[1] = Plasma stability; format: in vitro ADME
Experimental: Thaw the frozen plasma immediately in a 37° C. water bath. Centrifuge plasma at 3,220 g for 10 minutes at room temperature to remove clots and collect supernatant into a fresh tube. Check and record the pH of the plasma. (Note: a. Only use plasma that has been thawed no more than twice since arrival. b. Only use plasma within the range of pH 7 to pH 8.)
The working solutions of test compounds and control compound are prepared in 50% water/50% acetonitrile and DMSO at the concentration of 100 μM, respectively. Propantheline is used as positive control for human and mouse plasma stability assay and mevinolin is used as the positive control for dog and rat plasma stability assay.
Add 5 μL of 100 μM working solution to 495 μL of pre-incubated human, monkey, dog, rat or mouse plasma to reach a final concentration of 1 μM. The final concentration of organic solvents is 0.5%. The assay is performed in duplicate. Incubate the reaction samples at 37° C. water bath with shaking at approximately 60 rpm. Take aliquots of 50 μL from the reaction samples at 0, 15, 30, 45, 60 and 120 minutes. Stop the reaction by adding 300 μL of room temperature quench solution (Acetonitrile containing internal standards (IS, 200 nM Labetalol, 100 nM Alprazolam and 2 μM Ketoprofen)). Vortex for 5 minutes. Centrifuge samples in plate at 3,220 g for 30 minutes at room temperature to precipitate protein. Transfer 100 μL of the supernatant to a new plate. The supernatant may be diluted with 100 μL or 200 μL water according to the LC/MS signal response and peak shape. Mix well and analyze samples using LC/MS/MS.

[2] = Plasma and brain exposure in male CD-1 mice (Brain PK); format: in vivo; conditions: CD-1, mouse, brain; for AUC(0-t): read-out: AUC0-tlast; for half-life: read-out: Apparent t1/2 (converted); for MRT last: read-out: MRT0-tlast
Experimental: Animals: Male CD-1 mice (20-25 g) from Charles River Labs will be acclimatized for a minimum of 5 days prior to dosing. Body weights will be recorded on the day of dosing. Food restriction: Animals dosed p.o. will be deprived of food overnight and fed ˜2 h following dosing. Clinical observations: Animals will be observed at the time of dosing and each sample collection. Any abnormalities will be documented. Dosing: Formulations will be administered i.v. via the tail vein and p.o. by gavage with disposable feeding needles. Sample collection: Terminal blood samples will be collected under O2/CO2 anesthesia by cardiac puncture and then the brain and lungs will be excised blotted and weighed. Sample processing/storage: All blood samples will be transferred into K2EDTA tubes and centrifuged (6,800 rpm for 5 min at 4° C.) to obtain plasma. All samples will be stored frozen at −80° C. until bioanalysis. Sample retention: Plasma, brain and lung samples will be analyzed and any remaining samples will be stored frozen at −80° C. until the study is completed.

[3] = tested on: MALME3-M; experiment: NCI screening panel (SRB); format: cell-based; conditions: Homo sapiens, Malme-3M, MALME3-M (Melanoma), 48 h; for CC50: read-out: LC50 (the source's name)
[4] = Microsomal stability; format: in vitro ADME; conditions: Human liver microsomes with NADPH; for Remaining Percentage (%) after 60 min: 1 μM
Experimental: (§1) Working stocks were initially diluted to a concentration of 40.0 μM in 0.1 M potassium phosphate buffer before addition to the reaction vials. Pooled mouse (CD-1, male) or human (50 donors) liver microsomes were utilized at a final concentration of 0.5 mg/ml. […] Reactions were carried out at 37° C. in a shaker, and the final concentration of DMSO was kept constant at 0.01%. The final volume for each reaction was 100 μL, which includes the addition of an NADPH-Regeneration solution (NRS) mix. This NRS mix is comprised of glucose 6-phosphate dehydrogenase (0.4 U/mL), NADP+(1.3 mM), MgCl2 (3.3 mM), and glucose 6-phosphate (3.3 mM) in assay mixtures. […] Samples were then centrifuged at 4,000 rpm for 10 minutes to remove debris and precipitated protein. Approximately 150 μL of supernatant was subsequently transferred to a new 96 well microplate for LC/MS analysis.
(§2) Narrow-window mass extraction LC/MS analysis was performed for all samples using a Waters Xevo quadrupole time-of-flight (QTof) mass spectrometer and an ACQUITY UPLC system, to determine relative peak areas of parent compound.

[5] = tested on: SNB-75; experiment: NCI screening panel (SRB); format: cell-based; conditions: Homo sapiens, SNB-75 (CNS), 48 h; for CC50: read-out: LC50 (the source's name)
[6] = tested on: HOP-92; experiment: NCI screening panel (SRB); format: cell-based; conditions: Homo sapiens, HOP-92 (NSCLC), 48 h; for CC50: read-out: LC50 (the source's name)
[7] = tested on: HT29; experiment: NCI screening panel (SRB); format: cell-based; conditions: Homo sapiens, HT-29, HT29 (Colon), 48 h; for CC50: read-out: LC50 (the source's name)
[8] = tested on: K-562; experiment: NCI screening panel (SRB); format: cell-based; conditions: Homo sapiens, K562, K-562 (Leukemia), 48 h; for CC50: read-out: LC50 (the source's name)
[9] = tested on: U251; experiment: NCI screening panel (SRB); format: cell-based; conditions: Homo sapiens, U-251, U251 (CNS), 48 h; for CC50: read-out: LC50 (the source's name)
[10] = Microsomal stability; format: in vitro ADME, mouse (CD-1, male); conditions: Mouse liver microsomes with NADPH; for Remaining Percentage (%) after 60 min: 1 μM; for half-life at 1 μM / microsomal CLint at 1 μM: male, CD-1
Experimental: as §1, §2

With `CN(C)C/C=C/C(=O)Nc1cc2c(Nc3ccc(F)c(Cl)c3)ncnc2cc1O[C@H]1CCOC1` [Afatinib, reference compound] the “Dog Remaining Percentage (%)” value ([1]; 60 min) was 111.61%, the “Human Remaining Percentage (%)” value ([1]; 60 min) was 94.78% and the “Monkey Remaining Percentage (%)” value ([1]; 60 min) was 102.98%. For the same molecule, the “Mouse Remaining Percentage (%)” value ([1]; 60 min) was 101.81%, the “Rat Remaining Percentage (%)” value ([1]; 60 min) was 101.43% and the “Dog Remaining Percentage (%)” value ([1]; 120 min) was 102.15%. For the same molecule, the “Human Remaining Percentage (%)” value ([1]; 120 min) was 98.62%, the “Monkey Remaining Percentage (%)” value ([1]; 120 min) was 97.24% and the “Mouse Remaining Percentage (%)” value ([1]; 120 min) was 106.59%. The “Rat Remaining Percentage (%)” value ([1]; 120 min) was 95.31%, the Cmax ([2]; iv, i.v. 1 mg/kg free base) was 12.7 ng/mL and the Tmax ([2]; iv, i.v. 1 mg/kg free base) was 0.0833 h. For the same molecule, the AUC(0-t) ([2]; iv, i.v. 1 mg/kg free base) was 44.5 ng·h/mL, the half-life ([2]; iv, i.v. 1 mg/kg free base) was 4.97 h and the MRT last ([2]; iv, i.v. 1 mg/kg free base) was 7.01 h. For the same molecule, the AUC(0-inf) ([2]; po, p.o. 25 mg/kg free base) was 704 ng·h/mL, the Cmax ([2]; po, p.o. 25 mg/kg free base) was 83.3 ng/mL and the Tmax ([2]; po, p.o. 25 mg/kg free base) was 4 h. It also gave an AUC(0-t) ([2]; po, p.o. 25 mg/kg free base) of 688 ng·h/mL, a half-life ([2]; po, p.o. 25 mg/kg free base) of 3.69 h and an MRT last ([2]; po, p.o. 25 mg/kg free base) of 8.64 h.

For `CN(C)C/C=C/C(=O)Nc1cc2c(Nc3cccc(Cl)c3F)ncnc2cc1OCCOC(F)F.O=C(O)/C=C\C(=O)O` [Example I-5-MA, (E)-N-[4-(3-chloro-2-fluoro-anilino)-7-[2-(difluoromethoxy)ethoxy]quinazolin-6-yl]-4-(dimethylamino)but-2-enamide dimaleic acid salt], the “Dog Remaining Percentage (%)” value ([1]; 60 min) was 104.57%, the “Human Remaining Percentage (%)” value ([1]; 60 min) was 101.95% and the “Monkey Remaining Percentage (%)” value ([1]; 60 min) was 85.79%. For the same molecule, the “Mouse Remaining Percentage (%)” value ([1]; 60 min) was 95.45%, the “Rat Remaining Percentage (%)” value ([1]; 60 min) was 99.28% and the “Dog Remaining Percentage (%)” value ([1]; 120 min) was 102.13%. The “Human Remaining Percentage (%)” value ([1]; 120 min) was 95.45%, the “Monkey Remaining Percentage (%)” value ([1]; 120 min) was 83.32% and the “Mouse Remaining Percentage (%)” value ([1]; 120 min) was 105.25%. For the same molecule, the “Rat Remaining Percentage (%)” value ([1]; 120 min) was 95.14%.

In the case of `CN(C)C/C=C/C(=O)Nc1cc2c(Nc3ccc(F)c(Cl)c3F)ncnc2cc1OCCOC(F)F.O=C(O)/C=C\C(=O)O.O=C(O)/C=C\C(=O)O` [Example I-9-MA, (E)-N-[4-(3-chloro-2,4-difluoro-anilino)-7-[2-(difluoromethoxy)ethoxy]quinazolin-6-yl]-4-(dimethylamino)but-2-enamide di-maleic acid salt], the GI50 [3] is reported as 1420 nM, the CC50 [3] is reported as 6970 nM and the half-life at 1 μM [4] is reported as 0.986 h. For the same molecule, the microsomal CLint at 1 μM [4] was 23.4 µL/min/mg, the “Remaining Percentage (%) after 60 min” value [4] was 47.73% and the GI50 [5] was 129 nM. It also gave a CC50 [5] of 23600 nM, a GI50 [6] of 185 nM and a CC50 [6] of 31200 nM. For the same molecule, the AUC(0-inf) ([2]; iv, i.v. 1 mg/kg free base) was 420 ng·h/mL, the Cmax ([2]; iv, i.v. 1 mg/kg free base) was 171 ng/mL and the Tmax ([2]; iv, i.v. 1 mg/kg free base) was 0.0833 h. The AUC(0-t) ([2]; iv, i.v. 1 mg/kg free base) was 397 ng·h/mL, the half-life ([2]; iv, i.v. 1 mg/kg free base) was 7.11 h and the MRT last ([2]; iv, i.v. 1 mg/kg free base) was 6.6 h. For the same molecule, the AUC(0-inf) ([2]; po, p.o. 25 mg/kg free base) was 5960 ng·h/mL, the Cmax ([2]; po, p.o. 25 mg/kg free base) was 651 ng/mL and the Tmax ([2]; po, p.o. 25 mg/kg free base) was 2 h. The AUC(0-t) ([2]; po, p.o. 25 mg/kg free base) was 5900 ng·h/mL, the half-life ([2]; po, p.o. 25 mg/kg free base) was 3.44 h and the MRT last ([2]; po, p.o. 25 mg/kg free base) was 6.78 h. For the same molecule, the GI50 [7] was 383 nM, the CC50 [7] was 62600 nM and the GI50 [8] was 459 nM. For the same molecule, the CC50 [8] was 61900 nM, the GI50 [9] was 2170 nM and the CC50 [9] was 29600 nM. The “Remaining Percentage (%) after 60 min” value [10] was 30.53%, the half-life at 1 μM [10] was 0.586 h and the microsomal CLint at 1 μM [10] was 39.4 µL/min/mg.

For `O=C(/C=C/CN1CCCCC1)Nc1cc2c(Nc3ccc(F)c(Cl)c3F)ncnc2cc1OCCOC(F)F.O=C(O)/C=C\C(=O)O.O=C(O)/C=C\C(=O)O` [Example I-10-MA, (E)-N-[4-(3-chloro-2,4-difluoro-anilino)-7-[2-(difluoromethoxy)ethoxy]quinazolin-6-yl]-4-(1-piperidyl)but-2-enamide di-maleic acid salt], the GI50 [3] was 1450 nM, the CC50 [3] was 7440 nM and the half-life at 1 μM [4] was 1.45 h. The microsomal CLint at 1 μM [4] was 15.9 µL/min/mg, the “Remaining Percentage (%) after 60 min” value [4] was 60.64% and the GI50 [5] was 274 nM. For the same molecule, the CC50 [5] was 31000 nM, the GI50 [6] was 151 nM and the CC50 [6] was 21100 nM. It also gave an AUC(0-inf) ([2]; iv, i.v. 1 mg/kg free base) of 1730 ng·h/mL, a Cmax ([2]; iv, i.v. 1 mg/kg free base) of 1110 ng/mL and a Tmax ([2]; iv, i.v. 1 mg/kg free base) of 0.25 h. For the same molecule, the AUC(0-t) ([2]; iv, i.v. 1 mg/kg free base) was 1710 ng·h/mL, the half-life ([2]; iv, i.v. 1 mg/kg free base) was 4.75 h and the MRT last ([2]; iv, i.v. 1 mg/kg free base) was 2.99 h. It also gave an AUC(0-inf) ([2]; po, p.o. 25 mg/kg free base) of 14000 ng·h/mL, a Cmax ([2]; po, p.o. 25 mg/kg free base) of 3830 ng/mL and a Tmax ([2]; po, p.o. 25 mg/kg free base) of 2 h. For the same molecule, the AUC(0-t) ([2]; po, p.o. 25 mg/kg free base) was 13900 ng·h/mL, the half-life ([2]; po, p.o. 25 mg/kg free base) was 3.25 h and the MRT last ([2]; po, p.o. 25 mg/kg free base) was 3.68 h. For the same molecule, the GI50 [7] was 1140 nM, the CC50 [7] was 51400 nM and the GI50 [8] was 1030 nM. For the same molecule, the CC50 [8] was greater than 100000 nM, the GI50 [9] was 2170 nM and the CC50 [9] was 40700 nM. For the same molecule, the “Remaining Percentage (%) after 60 min” value [10] was 48.95%, the half-life at 1 μM [10] was 0.964 h and the microsomal CLint at 1 μM [10] was 24 µL/min/mg.

From US20190016689A1, “NOVEL FLUORINATED QUINAZOLINE DERIVATIVES AS EGFR INHIBITORS” (TRILLIUM THERAPEUTICS INC., priority 2016, published 2019)
